Measured values as given in EP0943615A1, “1,4-DIHYDROPYRIDINE DERIVATIVES” (Nikken Chemicals Company, Limited, priority 1996, dated 1998).

System: VJ-300 cells
Test: In vitro test of action suppressing proliferation of cancer cells, combined administration of doxorubicin (colony formation), resistant cells
Format: cell-based, Human
Conditions: ADM alone or ADM + test compound 1 µg/ml, LD50 of ADM relative to ADM alone in KB cells = 1, 7 days incubation, colony count
Protocol: Human rhinopharynx cancer derived KB cells (i.e., sensitive cells) and their multi-drug resistant clone VJ-300 cells (i.e., resistant cells) were used as the test cells. As the incubation solutions, use was made of 10% fetal calf serum (Flow Laboratories) and Eagle MEM medium (Nissui Seiyaku) containing 0.292 mg/ml of L-glutamine (Flow Laboratories). The tests of the action for overcoming resistance to anti-cancer drugs or action for increasing the effect of the anti-cancer drug with the combined administration of the anti-cancer drug doxorubicin (i.e., adriamycin, ADM) and the test compound were performed as follows:
The test cells were suspended in incubation solutions and adjusted to a cell density of about 200 cells/ml. The cell suspensions were injected in 2 ml amounts into petri dishes and were incubated in a CO2 gas incubator (5% CO2, 95% air) at 37°C for 24 hours. Then, 5 µl of a predetermined concentration of the aqueous ADM solution and a predetermined concentration of a DMSO solution of the test compound were added, then the incubation was continued for a further 7 days. After the end of the incubation, the result was immobilized with methanol, Giemsa stained and measured for the number of colonies per dish. The results were used to prepare a volume-reaction curve. […] The results are shown in Table 8 to Table 10 using the concentration of LD50 of ADM in the ADM alone group by KB cells as the resistance degree 1 and calculating the resistances of the following LD50 concentrations as relative ratios. […]

SMILES | Degree of resistance for ADM VJ-300
COc1cccc2c1C(=O)c1c(O)c3c(c(O)c1C2=O)C[C@@](O)(C(=O)CO)C[C@@H]3O[C@H]1C[C@H](N)[C@H](O)[C@H](C)O1 [ADM, doxorubicin, reference compound] | 26 - 51
CCCCCC1C(C(=O)OCC=Cc2cccnc2)=C(C)NC(c2ccc(-n3c(C)nc4ncccc43)cc2)=C1C(=O)OCC (stereo not shown) [Compound 4, 6-methyl-2-[4-(2-methylimidazo[4,5-b]pyridin-1-yl)phenyl]-4-pentyl-1,4-dihydropyridin-3,5-dicarboxylate 3-ethylester, 5-[3-(3-pyridyl)-2-propenyl]ester] | 1.2
CCCCCC1C(C(=O)OCCCN2CCN(C(c3ccccc3)c3ccccc3)CC2)=C(C)NC(c2ccc(-n3c(C)nc4ncccc43)cc2)=C1C(=O)OCC (stereo not shown) [Compound 5, 6-methyl-2-[4-(2-methylimidazo[4,5-b]pyridin-1-yl)phenyl]-4-pentyl-1,4-dihydropyridin-3,5-dicarboxylate 3-ethylester, 5-[3-(4-benzhydrylpiperadin-1-yl)propyl]ester] | 4.6
CCCCC1C(C(=O)OCCCc2cccnc2)=C(C)NC(c2ccc(-n3c(C)nc4cnccc43)cc2)=C1C(=O)OCC (stereo not shown) [Compound 6, 4-butyl-6-methyl-2-[4-(2-methylimidazo[4,5-c]pyridin-1-yl)phenyl]-1,4-dihydropyridin-3,5-dicarboxylate 3-ethylester, 5-[3-(3-pyridyl)propyl]ester] | 2.8
CCCCCC1C(C(=O)OCCCc2cccnc2)=C(C)NC(c2ccc(-n3c(C)nc4cnccc43)cc2)=C1C(=O)OCC (stereo not shown) [Compound 7, 6-methyl-2-[4-(2-methylimidazo[4,5-c]pyridin-1-yl)phenyl]-4-pentyl-1,4-dihydropyridin-3,5-dicarboxylate 3-ethylester, -5-[3-(3-pyridyl)propyl]ester] | 2.8
CCOC(=O)C1=C(c2ccc(-n3c(C)nc4cnccc43)cc2)NC(C)=C(C(=O)OCCCc2cccnc2)C1CC(C)(C)C (stereo not shown) [Compound 8, 4-(2,2-dimethylpropyl)-6-methyl-2-[4-(2-methylimidazo[4,5-c]pyridin-1-yl)phenyl]-1,4-dihydropyridin-3,5-dicarboxylate 3-ethylester, 5-[3-(3-pyridyl)propyl]ester] | 1.3
CCOC(=O)C1=C(c2ccc(-n3c(C)nc4cnccc43)cc2)NC(C)=C(C(=O)OCCCc2cccnc2)C1C1CCCCC1 (stereo not shown) [Compound 9, 4-cyclohexyl-6-methyl-2-[4-(2-methylimidazo[4,5-c]pyridin-1-yl)phenyl]-1,4-dihydropyridin-3,5-dicarboxylate 3-ethylester, 5-[3-(3-pyridyl)propyl]ester] | 2.9
CCOC(=O)C1=C(c2ccc(-n3c(C)nc4cnccc43)cc2)NC(C)=C(C(=O)OCCCc2cccnc2)C1CC(C)C (stereo not shown) [Compound 10, 6-methyl-2-[4-(2-methylimidazo[4,5-c]pyridin-1-yl)phenyl]-4-(2-methylpropyl)-1,4-dihdropyridin-3,5-dicarboxylate 3-ethylester, 5-[3-(3-pyridyl)propyl]ester] | 1.4
CCOC(=O)C1=C(c2ccc(-n3c(C)nc4cnccc43)cc2)NC(C)=C(C(=O)OCCCc2cccnc2)C1C=C(C)C (stereo not shown) [Compound 11, 6-methyl-2-[4-(2-methylimidazo[4,5-c]pyridin-1-yl)phenyl]-4-(2-methyl-1-propenyl)-1,4-dihydropyridin-3,5-dicarboxylate 3-ethylester, 5-[3-(3-pyridyl)propyl]ester] | 3.2
CCOC(=O)C1=C(c2ccc(-n3c(C)nc4cnccc43)cc2)NC(C)=C(C(=O)OCCCc2cccnc2)C1Cc1ccccc1 (stereo not shown) [Compound 12, 4-benzyl-6-methyl-2-[4-(2-methylimidazo[4,5-c]pyridin-1-yl)phenyl]-1,4-dihydropyridin-3,5-dicarboxylate 3-ethylester, 5-[3-(3-pyridyl)propyl]ester] | 6.5
CCOC(=O)C1=C(c2ccc(-n3c(C)nc4cnccc43)cc2)NC(C)=C(C(=O)OCCCc2cccnc2)C1CCc1ccccc1 (stereo not shown) [Compound 13, 6-methyl-2-[4-(2-methylimidazo[4,5-c]pyridin-1-yl)phenyl]-4-(2-phenylethyl)-1,4-dihydropyridin-3,5-dicarboxylate 3-ethylester, 5-[3-(3-pyridyl)propyl]ester] | 2.6
CCOC(=O)C1=C(c2ccc(-n3c(C)nc4cnccc43)cc2)NC(C)=C(C(=O)OCCCc2cccnc2)C1/C=C/c1ccccc1 (stereo not shown) [Compound 14, 6-methyl-2-[4-(2-methylimidazo[4,5-c]pyridin-1-yl)phenyl]-4-[(E)-2-phenylethenyl]-1,4-dihydropyridin-3,5-dicarboxylate 3-ethylester, 5-[3-(3-pyridyl)propyl]ester] | 1.3
CCCCCC1C(C(=O)OCCCCCc2cccnc2)=C(C)NC(c2ccc(-n3c(C)nc4cnccc43)cc2)=C1C(=O)OCC (stereo not shown) [Compound 17, 6-methyl-2-[4-(2-methylimidazo[4,5-c]pyridin-1-yl)phenyl]-4-pentyl-1,4-dihydropyridin-3,5-dicarboxylate 3-ethylester, 5-[5-(3-pyridyl)pentyl]ester] | 1.6
CCOC(=O)C1=C(c2ccc(-n3c(C)nc4cnccc43)cc2)NC(C)=C(C(=O)OCCCCCc2cccnc2)C1CCc1ccccc1 (stereo not shown) [Compound 18, 6-methyl-2-[4-(2-methylimidazo[4,5-c]pyridin-1-yl)phenyl]-4-(2-phenylethyl)-1,4-dihydropyridin-3,5-dicarboxylate 3-ethylester, 5-[5-(3-pyridyl)pentyl]ester] | 1.4
CCCCCC1C(C(=O)OC/C=C(/c2cccnc2)c2cccs2)=C(C)NC(c2ccc(-n3c(C)nc4cnccc43)cc2)=C1C(=O)OCC (stereo not shown) [Compound 19, 6-methyl-2-[4-(2-methylimidazo[4,5-c]pyridin-1-yl)phenyl]-4-pentyl-1,4-dihydropyridin-3,5-dicarboxylate 3-ethylester, 5-[(Z)-3-(3-pyridyl)-3-(2-thienyl)-2-propenyl]ester] | 1.2
CCOC(=O)C1=C(c2ccc(-n3c(C)nc4cnccc43)cc2)NC(C)=C(C(=O)OC/C=C(/c2cccnc2)c2cccs2)C1CCc1ccccc1 (stereo not shown) [Compound 20, 6-methyl-2-[4-(2-methylimidazo[4,5-c]pyridin-1-yl)phenyl]-4-(2-phenylethyl)-1,4-dihydropyridin-3,5-dicarboxylate 3-ethylester, 5-[(Z]-3-(3-pyridyl)-3-(2-thienyl)-2-propenyl]ester] | 1.6
CCOC(=O)C1=C(c2ccc(-n3c(C)nc4cnccc43)cc2)NC(C)=C(C(=O)OCCCCCc2cccnc2)C1/C=C/c1ccccc1 (stereo not shown) [Compound 21, 6-methyl-2-[4-(2-methylimidazo[4,5-c]pyridin-1-yl)phenyl]-4-[(E)-2-phenylethenyl]-1,4-dihydropyridin-3,5-dicarboxylate 3-ethylester, 5-[5-(3-pyridyl)pentyl]ester] | 1.1
CCOC(=O)C1=C(c2ccc(-n3c(C)nc4ncccc43)cc2)NC(C)=C(C(=O)OC/C=C/c2cccnc2)C1/C=C/c1ccccc1Cl (stereo not shown) [Compound 22, 4-[(E)-2-(2-chlorophenyl]ethenyl]-6-methyl-2-[4-(2-methylimidazo[4,5-b]pyridin-1-yl)phenyl]-1,4-dihydropyridin-3,5-dicarboxylate 3-ethylester, 5-[(E)-3-(3-pyridyl)-2-propenyl]ester] | 1.7
CCOC(=O)C1=C(c2ccc(-n3c(C)nc4cnccc43)cc2)NC(C)=C(C(=O)OC/C=C/c2cccnc2)C1/C=C/c1ccccc1 (stereo not shown) [Compound 25, 6-methyl-2-[4-(2-methylimidazo[4,5-c]pyridin-1-yl)phenyl]-4-[(E)-2-phenylethenyl]-1,4-dihydropyridin-3,5-dicarboxylate 3-ethylester, 5-[(E)-3-(3-pyridyl)-2-propenyl]ester] | 1.1
CCOC(=O)C1=C(c2ccc(-n3c(C)nc4cnccc43)cc2)NC(C)=C(C(=O)OC/C=C/c2cccnc2)C1CCc1ccsc1 (stereo not shown) [Compound 26, 6-methyl-2-[4-(2-methylimidazo[4,5-c]pyridin-1-yl)phenyl]-4-[2-(3-thienyl)ethyl)-1,4-dihydropyridin-3,5-dicarboxylate 3-ethylester, 5-[(E)-3-(3-pyridyl)-2-propenyl]ester] | 1.8
CCOC(=O)C1=C(c2ccc(-n3c(C)nc4cnccc43)cc2)NC(C)=C(C(=O)OC/C=C/c2cccnc2)C1/C=C/c1ccoc1 (stereo not shown) [Compound 27, 4-[(E]-2-(3-furyl)ethenyl]-6-methyl-2-[4-(2-methylimidazo[4,5-c]pyridin-1-yl)phenyl]-1,4-dihydropyridin-3,5-dicarboxylate 3-ethylester, 5-[(E)-3-(3-pyridyl)-2-propenyl]ester] | 8.7
CCOC(=O)C1=C(c2ccc(-n3c(C)nc4cnccc43)cc2)NC(C)=C(C(=O)OC/C=C/c2cccnc2)C1CCC1CCCCC1 (stereo not shown) [Compound 28, 4-(2-cyclohexylethyl)-6-methyl-2-[4-(2-methylimidazo[4,5-c]pyridin-1-yl)phenyl]-1,4-dihydropyridin-3,5-dicarboxylate 3-ethylester, 5-[(E)-3-(3-pyridyl)-2-propenyl]ester] | 1.7
